Experiments:
[1] = Serum levels of analgesic in human blood after oral therapeutic doses; format: in vivo; conditions: adult humans, conversion of mg/L by molecular weight
Text: Table 3 summarizes the results of several studies that measured serum levels of analgesic after oral therapeutic doses in adult humans. […] Therefore, the doses of analgesic tested in vitro in Table 2 cover the range of concentrations achievable in vivo in humans.

[2] = tested on: PGE2 secretion by normal human bladder smooth muscle cells; experiment: PGE2 ELISA of normal human bladder smooth muscle cell supernatants; format: cell-based; conditions: for effect on the LPS-induced PGE2 responses: analgesic at either 5 μM or 50 μM
Description: Prostaglandin E2 responses were analyzed by a sequential competitive ELISA (R&D Systems). More specifically, culture supernatants or PGE2 standards were added to the wells of a 96-well polystyrene microplate coated with a goat anti-mouse polyclonal antibody. After one hour incubation on a microplate shaker, an HRP-conjugated PGE2 was added and plates incubated for an additional two hours at room temperature. The plates were then washed and HRP substrate solution added to each well. The color was allowed to develop for 30 min and the reaction stopped by addition sulfuric acid before reading the plate at 450 nm with wavelength correction at 570 nm. Results are expressed as mean pg/ml of PGE2.
Normal human bladder smooth muscle cells were isolated by enzymatic digestion from macroscopically normal pieces of human bladder. Cells were expended in vitro by culture at 37° C. in a 5% CO2 atmosphere in RPMI 1640 supplemented with 10% fetal bovine serum, 15 mM HEPES, 2 mM L-glutamine, 100 U/ml penicillin, and […] of streptomycin and passage once a week by treatment with trypsin to detach cells followed by reseeding in a new culture flask. The first week of culture, the culture medium was supplemented with 0.5 ng/ml epidermal growth factor, 2 ng/ml fibroblast growth factor, and 5 μg/ml insulin.
[…] When no other effectors were added to the cells, 50 μl of RPMI 1640 without fetal bovine serum were added to the wells to adjust the final volume to 200 μl.
After 24 hours of culture, 150 μl of culture supernatants were collected, spun down for 2 min at 8,000 rpm at 4° C. to remove cells and debris and stored at −70° C. for analysis of Prostaglandin E2 (PGE2) responses by ELISA. Cells were fixed, permeabilized and blocked for detection of COX2 using a fluorogenic substrate. In selected experiment cells were stimulated 12 hours in vitro for analysis of COX2, PGE2 and cytokine responses.
COX2 and PGE2 responses were analyzed as described in Example 3. Cytokine responses were analyzed as described in Example 2.

[3] = Inhibition of the urge to urinate in volunteer subjects; format: in vivo, human
Text: Twenty volunteer subjects, both male and female were enrolled, each of which experienced premature urge or desire to urinate, interfering with their ability to sleep for a sufficient period of time to feel adequately rested. […] At least 14 subjects reported that they were able to rest better because they were not being awakened as frequently by the urge to urinate.

[4] = Carbachol 10^−3 M plus analgesic 50 μM, carbachol alone 104, unstimulated <20.5
[5] = Carbachol 10^−3 M plus analgesic 50 μM, carbachol alone 129, unstimulated <20.5, mean of duplicates
[6] = LPS (10 μg/ml) plus analgesic 5 μM, LPS alone 998
[7] = LPS (10 μg/ml) plus analgesic 5 μM, LPS alone 1125, mean of duplicates
[8] = LPS (10 μg/ml) plus analgesic 50 μM, LPS alone 998
[9] = LPS (10 μg/ml) plus analgesic 50 μM, LPS alone 1125, mean of duplicates
[10] = stimulus alone, no analgesic (Carbachol 10^−3 M; LPS 10 μg/ml), unstimulated <20.5

Row | Maximum serum levels after oral therapeutic doses [1] | SMILES | PGE2 levels (pg/ml) Subject 2 [2, 4] | PGE2 levels (pg/ml) Subject 1 [2, 5] | PGE2 levels (pg/ml) Subject 2 [2, 6] | PGE2 levels (pg/ml) Subject 1 [2, 7] | PGE2 levels (pg/ml) Subject 2 [2, 8] | PGE2 levels (pg/ml) Subject 1 [2, 9] | effect on the LPS-induced PGE2 responses [2] | benefit of less frequent urges to urinate after several weeks of nightly use ([3]; several subjects) | benefit after several days of abstaining from taking the dosages ([3]; subjects who had lost the benefit) | subjects who reported that they were able to rest better because they were not being awakened as frequently by the urge to urinate ([3]; twenty volunteer subjects, 400-800 mg as a single dose prior to bedtime) | PGE2 production in response to stimulus alone ([2]; no analgesic) | PGE2 levels (pg/ml) Subject 1 [2, 10] | PGE2 levels (pg/ml) Subject 2 [2, 10]
1 | ≤ 260 µM | COc1ccc2cc([C@H](C)C(=O)O)ccc2c1 [Naproxen] | 66 pg/mL | 77 pg/mL | 506 pg/mL | 859 pg/mL | 523 pg/mL | 819 pg/mL | suppress |  |  |  |  |  | 
2 |  | CC(C)Cc1ccc(C(C)C(=O)O)cc1 (centres unmarked) [Ibuprofen, ibuprofen] | 73 pg/mL | 84 pg/mL | 527 pg/mL | 824 pg/mL | 501 pg/mL | 821 pg/mL | suppress | no longer being realized | return of the benefit | At least 14 subjects |  |  | 
3 |  | C[N+](C)(C)CCOC(N)=O [Carbachol, carbachol] |  |  |  |  |  |  |  |  |  |  | induced production of PGE2 | 129 pg/mL | 104 pg/mL
4 |  | CC(=O)Nc1ccc(O)cc1 [Acetaminophen, N-acetyl-para-aminophenol] | 62 pg/mL | 76 pg/mL | 542 pg/mL | 817 pg/mL | 540 pg/mL | 803 pg/mL | suppress |  |  |  |  |  | 
5 |  | CC(=O)Oc1ccccc1C(=O)O [Aspirin, Acetylsalicylic acid] | 59 pg/mL | 89 pg/mL | 598 pg/mL | 838 pg/mL | 534 pg/mL | 812 pg/mL | suppress |  |  |  |  |  | 
